Reference: patent publication US4243681A, “Alkylthiophenoxypropanolamines and pharmaceutical compositions and uses thereof” (priority 1979, dated 1981)
Counter-ions that a name gives are not always drawn.

What follows are compounds tested on human platelet-rich plasma (assay: Inhibition of platelet aggregation in vitro (ADP or collagen induced; antithrombogenic activity)). Details: aggregation induced by 1 mcg. ADP.
Type: cell-based
Procedure: Test Method. A method similar to that described in Born, Nature 194, 927 (1962) and O'Brien, J. Clinical Pathology 15, 446 (1962). This test comprises a nephelometric method in which the change in turbidity of a specimen of human platelet-rich plasma is measured on causation of platelet aggregation by addition of adenosine diphosphate (ADP) or collagen as the thrombogenic inducing agent. An increase in transmittance light occurs when the thrombogenic agent is added to the specimen of platelet-rich plasm due to clumping of platelets. Efficacy of the test compound is determined by ability to prevent the clumping and concommitant increase in transmittance. Various concentrations of the test agent are tested and that concentration causing a 50% reduction in the thrombogenic response is determined from a concentration-response curve.

| Compound | ED50 ADP (inhibition of platelet aggregation) |
| --- | --- |
| CCCCCCCCNCC(O)COc1ccc(SC)cc1C (stereo not drawn) [Example 7, 1-[2-methyl-4-(methylthio)phenoxy]-3-(octylamino)-2-propanol] | 82 Microgram/0.5 ml. plateletrich human plasma |
| CSc1ccccc1OCC(O)CNC(C)C (stereo not drawn) [Test agent A, 1-(isopropylamino)-3-[2-(methylthio)phenoxy]-2-propanol, reference compound] | 137 Microgram/0.5 ml. plateletrich human plasma |
| CC(C)Sc1ccc(OCC(O)CNCCCCC2CCCCC2)cc1 (stereo not drawn) [Example 6, 1-[(4-cyclohexylbutyl)amino]-3-[4-[(1-methylethyl)thio]phenoxy]-2-propanolhydrochloride] | 53 Microgram/0.5 ml. plateletrich human plasma |
| CCCCCCCCNCC(O)COc1ccccc1SC.Cl (stereo not drawn) [Example 8, 1-[2-(Methylthio)phenoxy]-3-(octylamino)-2-propanol Hydrochloride] | 65 Microgram/0.5 ml. plateletrich human plasma |
| CCCCCCCCNCC(O)COc1cccc(SC(C)C)c1.Cl (stereo not drawn) [Example 3, 1-[3-[(1-Methylethyl)thio]phenoxy]-3-(octylamino)-2-propanol Hydrochloride] | 53 Microgram/0.5 ml. plateletrich human plasma |

Same assay, conditions: minimal amount of collagen producing maximal aggregation

| Compound | ED50 Coll (inhibition of platelet aggregation) |
| --- | --- |
| CCCCCCCCNCC(O)COc1ccc(SC)cc1C (stereo not drawn) [Example 7, 1-[2-methyl-4-(methylthio)phenoxy]-3-(octylamino)-2-propanol] | 39 Microgram/0.5 ml. plateletrich human plasma |
| CSc1ccccc1OCC(O)CNC(C)C (stereo not drawn) [Test agent A, 1-(isopropylamino)-3-[2-(methylthio)phenoxy]-2-propanol, reference compound] | 33 Microgram/0.5 ml. plateletrich human plasma |
| CC(C)Sc1ccc(OCC(O)CNCCCCC2CCCCC2)cc1 (stereo not drawn) [Example 6, 1-[(4-cyclohexylbutyl)amino]-3-[4-[(1-methylethyl)thio]phenoxy]-2-propanolhydrochloride] | 29 Microgram/0.5 ml. plateletrich human plasma |
| CCCCCCCCNCC(O)COc1ccccc1SC.Cl (stereo not drawn) [Example 8, 1-[2-(Methylthio)phenoxy]-3-(octylamino)-2-propanol Hydrochloride] | 32 Microgram/0.5 ml. plateletrich human plasma |
| CCCCCCCCNCC(O)COc1cccc(SC(C)C)c1.Cl (stereo not drawn) [Example 3, 1-[3-[(1-Methylethyl)thio]phenoxy]-3-(octylamino)-2-propanol Hydrochloride] | 24 Microgram/0.5 ml. plateletrich human plasma |

What follows are compounds tested on rabbit thoracic aorta (assay: Isolated rabbit thoracic aorta, antispasmodic activity vs. potassium chloride). Details: potassium chloride-induced spasms.
Type: cell-based, rabbit (New Zealand White)
Procedure: (§1) Test Method. Antispasmodic activity was assessed in vitro by determining the effect of the test substance on induced contraction of arterial smooth muscle as follows. Adult, male, New Zealand White rabbits (body weight 2.5-4 kg.) were used. Each rabbit was killed by i.v. air injection. The thorax was opened and the descending thoracic aorta removed and placed in Kreb's-bicarbonate solution. Extraneous tissue was removed and the aorta was cut spirally along its entire length. Four spiral segments, each approximately 2 cm. in length (unstretched), were obtained from each thoracic aorta. […] The bath medium surrounding the aortic spiral (Kreb's-bicarbonate solution) was maintained at 37.5°C. and constantly aerated with 95% O2 :5% CO2. Activity of the aortic smooth muscle was recorded on an electronic polygraph via its connection to the tension transducer. After an equilibration period of 60 min., a cumulative dose-response curve was obtained to an agonist (e.g. potassium chloride or norepinephrine) and the tissue then washed. Seventy-five min. later, a second cumulative dose-response curve to the agonist was obtained and the tissue washed again. Sixty min. later, a test drug solution was added to the tissue bath fluid and, after 15 min., drug exposure and, without washing, a third and final agonist-response curve was obtained. All additions to the bath fluid were 0.1 ml. volumes of aqueous solutions.

| Compound | antispasmodic activity (in words) | antispasmodic potency relative to prior art compounds A and B |
| --- | --- | --- |
| CSc1ccccc1OCC(O)CNC(C)C (stereo not drawn) [Test agent A, 1-(isopropylamino)-3-[2-(methylthio)phenoxy]-2-propanol, reference compound] | relatively weak activity |  |
| CC(C)Sc1ccc(OCC(O)CNCCCCC2CCCCC2)cc1 (stereo not drawn) [Example 6, 1-[(4-cyclohexylbutyl)amino]-3-[4-[(1-methylethyl)thio]phenoxy]-2-propanolhydrochloride] |  | about 1/2 |

Same assay, conditions: potency relative to papaverine (equals one), from pA2 vs. potassium chloride

| Compound | Antispasmodic Potency |
| --- | --- |
| CCCCCCCCNCC(O)COc1ccc(SC)cc1C (stereo not drawn) [Example 7, 1-[2-methyl-4-(methylthio)phenoxy]-3-(octylamino)-2-propanol] | 0.8 |
| CSc1ccccc1OCC(O)CNC(C)C (stereo not drawn) [Test agent A, 1-(isopropylamino)-3-[2-(methylthio)phenoxy]-2-propanol, reference compound] | 0.04 |
| CC(C)Sc1ccc(OCC(O)CNCCCCC2CCCCC2)cc1 (stereo not drawn) [Example 6, 1-[(4-cyclohexylbutyl)amino]-3-[4-[(1-methylethyl)thio]phenoxy]-2-propanolhydrochloride] | 0.02 |
| CCCCCCCCNCC(O)COc1ccccc1SC.Cl (stereo not drawn) [Example 8, 1-[2-(Methylthio)phenoxy]-3-(octylamino)-2-propanol Hydrochloride] | 2.6 |
| CCCCCCCCNCC(O)COc1cccc(SC(C)C)c1.Cl (stereo not drawn) [Example 3, 1-[3-[(1-Methylethyl)thio]phenoxy]-3-(octylamino)-2-propanol Hydrochloride] | 0.7 |

These compounds were tested against T1, adrenergic beta-receptor (Cavia porcellus, UniProt Q8K4Z4) (assay: Beta-adrenergic blocking activity in the isolated guinea pig trachea (isoproterenol)). Details: not given.
T1 construct: Tracheas excised from adult guinea pigs; from tissue; host or cells: guinea pig trachea (spirally cut segments)
Type: cell-based
Procedure: Test Method. […] The lower end of a tracheal segment is fixed to a stationary glass rod and the upper end is threaded to an isometric tension transducer. Changes in the spontaneous tonus of the tracheal smooth muscle are monitored via the transducer and recorded continuously on an electronic recorder. Adrenergic beta-receptor blocking activity is determined by the ability of a test agent to inhibit the response of the isolated tissue to the adrenergic beta-stimulant "isoproterenol" at a concentration of 0.1 mcg./ml. bath fluid. The tissues are exposed to the test agent solution for a 15-min. interval prior to the addition of isoproterenol to the bath fluid. Beta-receptor blocking potency of a test drug is ascertained from concentration-response relationships wherein the response is expressed as a percent inhibition of isoproterenol-induced tissue response. […] Each drug solution is added to the tissue bathing medium at a constant volume of 0.2 ml./ml. of bath fluid and only one test drug concentration is employed for an individual tissue segment. Potency of the test agent relative to that of the beta-adrenergic blocking agent "propanolol" as a reference standard is assessed by comparing the IC50 values.

T1 sequence (Q8K4Z4 whole entry): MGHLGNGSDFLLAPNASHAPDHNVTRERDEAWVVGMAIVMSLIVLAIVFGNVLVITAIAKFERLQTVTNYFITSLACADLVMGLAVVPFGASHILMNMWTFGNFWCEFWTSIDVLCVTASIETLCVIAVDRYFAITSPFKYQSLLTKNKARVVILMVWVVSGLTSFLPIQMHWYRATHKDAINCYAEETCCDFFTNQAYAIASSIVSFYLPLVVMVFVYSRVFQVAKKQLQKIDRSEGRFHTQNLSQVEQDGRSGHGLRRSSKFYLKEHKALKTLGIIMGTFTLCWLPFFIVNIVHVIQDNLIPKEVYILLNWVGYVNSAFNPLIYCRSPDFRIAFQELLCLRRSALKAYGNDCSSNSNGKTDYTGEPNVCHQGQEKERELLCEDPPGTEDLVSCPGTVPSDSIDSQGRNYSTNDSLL

| Compound | beta-adrenergic blocking activity (in words) |
| --- | --- |
| CSc1ccccc1OCC(O)CNC(C)C (stereo not drawn) [Test agent A, 1-(isopropylamino)-3-[2-(methylthio)phenoxy]-2-propanol, reference compound] | substantial activity |

Same assay, conditions: potency relative to propanol (equals one); isoproterenol 0.1 mcg./ml.

| Compound | Beta-Adrenergic Blocking Potency |
| --- | --- |
| CCCCCCCCNCC(O)COc1ccc(SC)cc1C (stereo not drawn) [Example 7, 1-[2-methyl-4-(methylthio)phenoxy]-3-(octylamino)-2-propanol] | < 0.0006 |
| CSc1ccccc1OCC(O)CNC(C)C (stereo not drawn) [Test agent A, 1-(isopropylamino)-3-[2-(methylthio)phenoxy]-2-propanol, reference compound] | 1.0 |
| CC(C)Sc1ccc(OCC(O)CNCCCCC2CCCCC2)cc1 (stereo not drawn) [Example 6, 1-[(4-cyclohexylbutyl)amino]-3-[4-[(1-methylethyl)thio]phenoxy]-2-propanolhydrochloride] | < 0.002 |
| CCCCCCCCNCC(O)COc1ccccc1SC.Cl (stereo not drawn) [Example 8, 1-[2-(Methylthio)phenoxy]-3-(octylamino)-2-propanol Hydrochloride] | 0.004 |
| CCCCCCCCNCC(O)COc1cccc(SC(C)C)c1.Cl (stereo not drawn) [Example 3, 1-[3-[(1-Methylethyl)thio]phenoxy]-3-(octylamino)-2-propanol Hydrochloride] | < 0.001 |

What follows are compounds tested on perfused dog hind limb (assay: Peripheral vasodilator activity, perfused dog hind limb (anesthetized dog)). Details: infusion dose 1.0 mg./min.
Type: in vivo
Procedure: Test Method. Mongrol dogs of either sex weighing between 11 and 16 kg., each, were anesthetized with pentobarbital (30 mg./kg.) administered intravenously. The left brachial vein was cannulated and pentobarbital infused continuously throughout the experiment at a rate of 5 mg./kg./hr. A tracheotomy was performed and dogs ventilated mechanically with room air at a rate of 18 strokes/min. and a volume equivalent to 20 ml./kg. The vagi were sectioned bilaterally in the mid-cervical region of the neck. The right brachial vein and artery were cannulated to inject drugs and to monitor blood pressure via a Statham pressure transducer, respectively. All measurements were recorded on a Beckman-Offner dynograph. The abdominal aorta was exposed through midline incision and a loose ligature placed around the aorta distal to the left renal artery. The right (donor) and left (recipient) femoral arteries were exposed for cannulation and subsequent hind-limb perfursion. Following intravenous administration of heparin (5 mg/kg.) and gallamine triethiodide (2 mg./kg.), the right femoral artery was cannulated and the tip of the catheter advanced into the abdominal aorta to the level of the renal arteries. The left femoral artery was cannulated and the hind-limb perfused using a Harvard Perfusion pump. The ligature previously placed around the aorta was subsequently tied to minimize collateral circulation. […] Perfusion pressure, measured at a point distal to the perfusion pump was set equal to 150 mm Hg. by adjusting pump speed. Blood flow to the limb was determined volumetrically at the conclusion of the experiment. The test agent was administered by infusion at a rate of from 0.1-1.0 mg./min. for a six-minute period and maximum reduction in pressure determined. One to three animals were employed per test agent. […] This protocol precludes effects resulting from animal variation thus permitting a direct side-by-side comparison of vasodilating activity.

| Compound | pressure reduction (findings, range over compounds) |
| --- | --- |
| CSc1ccccc1OCC(O)CNC(C)C (stereo not drawn) [Test agent A, 1-(isopropylamino)-3-[2-(methylthio)phenoxy]-2-propanol, reference compound] | 27-29 mm Hg |

Same assay, conditions: infusion rate 0.3 mg./min.

| Compound | Pressure Decrease |
| --- | --- |
| CCCCCCCCNCC(O)COc1ccc(SC)cc1C (stereo not drawn) [Example 7, 1-[2-methyl-4-(methylthio)phenoxy]-3-(octylamino)-2-propanol] | -56 Millimeters of mercury |
| CC(C)Sc1ccc(OCC(O)CNCCCCC2CCCCC2)cc1 (stereo not drawn) [Example 6, 1-[(4-cyclohexylbutyl)amino]-3-[4-[(1-methylethyl)thio]phenoxy]-2-propanolhydrochloride] | -47 Millimeters of mercury |
| CCCCCCCCNCC(O)COc1ccccc1SC.Cl (stereo not drawn) [Example 8, 1-[2-(Methylthio)phenoxy]-3-(octylamino)-2-propanol Hydrochloride] | -15 Millimeters of mercury |
| CCCCCCCCNCC(O)COc1cccc(SC(C)C)c1.Cl (stereo not drawn) [Example 3, 1-[3-[(1-Methylethyl)thio]phenoxy]-3-(octylamino)-2-propanol Hydrochloride] | -20 Millimeters of mercury |

Same assay, conditions: infusion rate 0.3 mg./min.; side-by-side comparison in same animals

| Compound | Pressure Decrease |
| --- | --- |
| CSc1ccccc1OCC(O)CNC(C)C (stereo not drawn) [Test agent A, 1-(isopropylamino)-3-[2-(methylthio)phenoxy]-2-propanol, reference compound] | -20 Millimeters of mercury |

Same assay, conditions: infusion rate 1.0 mg./min.

| Compound | Pressure Decrease |
| --- | --- |
| CCCCCCCCNCC(O)COc1ccc(SC)cc1C (stereo not drawn) [Example 7, 1-[2-methyl-4-(methylthio)phenoxy]-3-(octylamino)-2-propanol] | -80 Millimeters of mercury |
| CC(C)Sc1ccc(OCC(O)CNCCCCC2CCCCC2)cc1 (stereo not drawn) [Example 6, 1-[(4-cyclohexylbutyl)amino]-3-[4-[(1-methylethyl)thio]phenoxy]-2-propanolhydrochloride] | -74 Millimeters of mercury |
| CCCCCCCCNCC(O)COc1ccccc1SC.Cl (stereo not drawn) [Example 8, 1-[2-(Methylthio)phenoxy]-3-(octylamino)-2-propanol Hydrochloride] | -64 Millimeters of mercury |
| CCCCCCCCNCC(O)COc1cccc(SC(C)C)c1.Cl (stereo not drawn) [Example 3, 1-[3-[(1-Methylethyl)thio]phenoxy]-3-(octylamino)-2-propanol Hydrochloride] | -87 Millimeters of mercury |

Same assay, conditions: infusion rate 1.0 mg./min.; side-by-side comparison in same animals

| Compound | Pressure Decrease |
| --- | --- |
| CSc1ccccc1OCC(O)CNC(C)C (stereo not drawn) [Test agent A, 1-(isopropylamino)-3-[2-(methylthio)phenoxy]-2-propanol, reference compound] | -27 Millimeters of mercury |

What follows are compounds tested on alpha-adrenergic (assay: Isolated rabbit thoracic aorta, antispasmodic (anti-alpha-adrenergic) activity vs. norepinephrine). Details: norepinephrine as agonist.
Type: cell-based, rabbit (New Zealand White)
Procedure: as §1, with “solutions. […] Selective activity against norepinephrine-induced spasms is indicative of alpha-adrenergic blocking (i.e. antispasmodic) activity. […] Phentolamine is an alpha-adrenergic blocking agent and a standard reference in the art. […] This experiment illustrates that the instant compounds are non-anti-alpha-adrenergic antispasmodic agents in that they have a substantial direct smooth muscle relaxant effect (as shown in Example 34) relatively uncomplicated by any significant selective alpha-adrenergic blocking effect.” for “solutions.”

| Compound | anti-alpha-adrenergic activity relative to phentolamine |
| --- | --- |
| CSc1ccccc1OCC(O)CNC(C)C (stereo not drawn) [Test agent A, 1-(isopropylamino)-3-[2-(methylthio)phenoxy]-2-propanol, reference compound] | 1-2% |
| CCCCCCCCNCC(O)COc1ccccc1SC.Cl (stereo not drawn) [Example 8, 1-[2-(Methylthio)phenoxy]-3-(octylamino)-2-propanol Hydrochloride] | 1-2% |
